Experimental data from patent US20160122340A1, “HISTONE DEACETYLASE INHIBITORS BASED ON DERIVATIVES OF TRICYCLIC POLYHYDROACRIDINE AND ANALOGS POSSESSING FUSED SATURATED FIVE-AND-SEVEN-MEMBERED RINGS” (QUIMATRYX, S.L., priority 2013, published 2016).

Assays:
Human HDAC3/NcoR2 = target: T1, Human HDAC3/NcoR2 (Homo sapiens, UniProt O15379); assay: In vitro HDAC3 inhibition, fluorogenic peptide substrate; assay type: biochemical; details: read-out: IC50 (μM) HDAC-3
T1 construct: Complex of human HDAC3, full length with C-terminal His tag, MW=49.7 kDa; His (C); purchased BioMol SE-507; host or cells: baculovirus expression system
T1 sequence (O15379 whole entry): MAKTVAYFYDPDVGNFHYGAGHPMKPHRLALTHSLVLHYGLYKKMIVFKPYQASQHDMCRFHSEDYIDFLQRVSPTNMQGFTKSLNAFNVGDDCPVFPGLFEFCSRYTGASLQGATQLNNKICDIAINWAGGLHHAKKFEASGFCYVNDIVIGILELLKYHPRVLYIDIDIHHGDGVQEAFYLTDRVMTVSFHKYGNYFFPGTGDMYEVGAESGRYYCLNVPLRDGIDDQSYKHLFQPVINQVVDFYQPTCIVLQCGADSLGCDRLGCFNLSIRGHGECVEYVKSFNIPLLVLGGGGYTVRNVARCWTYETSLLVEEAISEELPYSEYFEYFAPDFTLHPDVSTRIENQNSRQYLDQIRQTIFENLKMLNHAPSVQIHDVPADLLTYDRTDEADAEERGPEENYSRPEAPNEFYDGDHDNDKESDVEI
T1 sequence (Q9Y618 395-489 partner limits assumed): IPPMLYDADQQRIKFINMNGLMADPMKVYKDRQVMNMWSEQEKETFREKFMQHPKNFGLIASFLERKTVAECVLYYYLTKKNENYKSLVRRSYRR
Experimental: (§1) In Vitro Inhibitory Activity of Histone Deacetylase: Human Isoforms HDAC1, 2, 3, 4, 5, 6, 7, 8, 9, 10 and 11 and HeLa Cell Line Nuclear Extract (IC50 Data)
(§2) All HDAC assays were performed using acetylated AMC-labeled peptide substrate: • Substrate for isoforms HDAC1, 2, 3, 6, 10, 11 and HeLa nuclear extract assays: Acetylated fluorogenic peptide from p53 residues 379-382 (RHKKAc). • Substrate for isoforms HDAC 4, 5, 7, 9: Fluorogenic Boc-L-Lys(ε-trifluoroacetyl)-AMC. • Substrate for HDAC8 assays: Acetylated fluorogenic peptide from p53 residues 379-382 (RHKAcKAc).
(§3) 50 μM of substrate peptide (see ‘substrate peptides’ section above) and an optimal concentration of the corresponding enzyme (see ‘enzymes’ section above) in the assay buffer and 1% final concentration of DMSO were incubated in the presence of gradient concentrations of inhibitors (10-dose IC50 mode with 3-fold serial dilution) at 30° C. for 2 h. The reactions were carried out in a 96-well microplate for fluorometry in a 50 μl reaction volume. After the deacetylation reaction, Fluor-de-Lys-Developer (BioMol Cat. # KI-105) was added to each well to digest the deacetylated substrate, thus producing the fluorescent signal. The reaction was allowed to develop for 45 minutes at 30° C. with 5% CO2; then the fluorescent signal was measured with an excitation wavelength at 360 nm and an emission wavelength at 460 nm in a microplate-reading fluorometer (GeminiXS; Molecular Devices, Sunnyvale, Calif.). A curve of Deacetylated Standard (Biomol, Cat. # KI-142; made from 100 μM with 1:2 dilution and 10-doses, 6 μl) allowed the conversion of fluorescent signal into micromoles of deacetylated product. All experiments were performed in triplicate. IC50 was calculated by fitting the experimental data to a dose-response curve. DMSO was used as negative control; Trichostatin A (Biomol Cat. # GR-309) was used as positive control inhibitor.

Human HDAC4 = target: T2, Human HDAC4 (Homo sapiens, UniProt P56524); assay: In vitro HDAC4 inhibition, fluorogenic substrate; assay type: biochemical; details: read-out: IC50 (μM) HDAC-4
T2 construct: Amino acids 627-1085 with N-terminal GST tag, MW=75.2 kDa; GST (N); purchased BioMol, Hamburg, Germany; host or cells: baculovirus expression system
T2 sequence (P56524 627-1084 limits assumed): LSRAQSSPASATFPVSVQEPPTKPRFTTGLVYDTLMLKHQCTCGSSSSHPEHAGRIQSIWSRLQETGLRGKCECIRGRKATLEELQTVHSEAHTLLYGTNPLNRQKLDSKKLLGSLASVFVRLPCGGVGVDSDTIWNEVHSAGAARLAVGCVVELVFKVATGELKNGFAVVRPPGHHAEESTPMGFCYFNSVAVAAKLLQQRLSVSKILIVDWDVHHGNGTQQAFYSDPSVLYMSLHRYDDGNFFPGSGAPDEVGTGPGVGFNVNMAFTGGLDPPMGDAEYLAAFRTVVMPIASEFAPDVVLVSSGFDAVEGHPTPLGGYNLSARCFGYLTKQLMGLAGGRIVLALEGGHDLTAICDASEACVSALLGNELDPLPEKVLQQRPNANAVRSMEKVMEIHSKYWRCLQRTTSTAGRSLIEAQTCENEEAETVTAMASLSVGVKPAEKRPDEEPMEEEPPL
Experimental: as §1, §2, §3

Human HDAC10 = target: T3, Human HDAC10 (Homo sapiens, UniProt Q969S8); assay: In vitro HDAC10 inhibition, fluorogenic peptide substrate; assay type: biochemical; details: read-out: IC50 (μM) HDAC-10
T3 construct: Amino acids 1-631 with Nterminal GST tag, MW=96 kDa; GST (N); purchased BioMol SE-559; host or cells: baculovirus / Sf9 cells
T3 sequence (Q969S8 1-631): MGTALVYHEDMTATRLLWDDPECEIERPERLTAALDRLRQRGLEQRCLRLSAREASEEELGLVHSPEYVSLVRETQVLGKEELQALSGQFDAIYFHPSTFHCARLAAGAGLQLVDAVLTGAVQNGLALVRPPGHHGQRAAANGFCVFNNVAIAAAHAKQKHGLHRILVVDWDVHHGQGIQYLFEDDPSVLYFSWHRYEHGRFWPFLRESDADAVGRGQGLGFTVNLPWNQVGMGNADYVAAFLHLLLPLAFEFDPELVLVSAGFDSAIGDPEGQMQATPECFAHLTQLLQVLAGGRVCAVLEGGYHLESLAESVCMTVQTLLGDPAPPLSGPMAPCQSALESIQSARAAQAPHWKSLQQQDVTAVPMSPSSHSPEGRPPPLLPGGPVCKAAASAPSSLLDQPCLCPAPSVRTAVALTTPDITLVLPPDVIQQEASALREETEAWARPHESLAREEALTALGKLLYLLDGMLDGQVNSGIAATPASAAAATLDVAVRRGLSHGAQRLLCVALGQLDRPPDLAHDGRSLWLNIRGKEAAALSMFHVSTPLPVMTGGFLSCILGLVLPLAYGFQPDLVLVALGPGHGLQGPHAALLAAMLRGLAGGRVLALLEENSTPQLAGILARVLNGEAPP
Experimental: as §1, §2, §3

Human HDAC1 = target: T4, Human HDAC1 (Homo sapiens, UniProt Q13547); assay: In vitro HDAC1 inhibition, fluorogenic peptide substrate; assay type: biochemical; details: read-out: IC50 (μM) HDAC-1
T4 construct: Full length with C-terminal GST tag, MW=79.9 kDa; GST (C); purchased BioMol SE-456; host or cells: baculovirus / Sf9 cells
T4 sequence (Q13547 whole entry): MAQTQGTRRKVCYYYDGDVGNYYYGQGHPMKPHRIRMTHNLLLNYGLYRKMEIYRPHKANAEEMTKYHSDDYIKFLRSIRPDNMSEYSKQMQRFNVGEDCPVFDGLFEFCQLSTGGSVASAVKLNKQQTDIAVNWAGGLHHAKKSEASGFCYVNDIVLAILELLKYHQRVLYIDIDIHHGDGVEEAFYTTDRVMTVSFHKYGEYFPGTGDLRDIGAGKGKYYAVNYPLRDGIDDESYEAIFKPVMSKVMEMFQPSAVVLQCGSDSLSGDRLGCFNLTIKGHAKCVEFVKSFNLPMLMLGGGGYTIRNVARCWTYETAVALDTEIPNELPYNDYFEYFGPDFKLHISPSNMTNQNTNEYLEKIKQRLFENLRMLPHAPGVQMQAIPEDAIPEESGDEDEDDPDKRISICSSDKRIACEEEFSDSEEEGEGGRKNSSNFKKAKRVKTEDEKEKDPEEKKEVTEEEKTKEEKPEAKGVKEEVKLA
Experimental: as §1, §2, §3

Human HDAC8 = target: T5, Human HDAC8 (Homo sapiens, UniProt Q9BY41); assay: In vitro HDAC8 inhibition, fluorogenic peptide substrate; assay type: biochemical; details: read-out: IC50 (μM) HDAC-8
T5 construct: Full length, MW=42 kDa, expressed in an E. coli expression system; purchased BioMol SE-145; host or cells: E. coli
T5 sequence (Q9BY41 1-377): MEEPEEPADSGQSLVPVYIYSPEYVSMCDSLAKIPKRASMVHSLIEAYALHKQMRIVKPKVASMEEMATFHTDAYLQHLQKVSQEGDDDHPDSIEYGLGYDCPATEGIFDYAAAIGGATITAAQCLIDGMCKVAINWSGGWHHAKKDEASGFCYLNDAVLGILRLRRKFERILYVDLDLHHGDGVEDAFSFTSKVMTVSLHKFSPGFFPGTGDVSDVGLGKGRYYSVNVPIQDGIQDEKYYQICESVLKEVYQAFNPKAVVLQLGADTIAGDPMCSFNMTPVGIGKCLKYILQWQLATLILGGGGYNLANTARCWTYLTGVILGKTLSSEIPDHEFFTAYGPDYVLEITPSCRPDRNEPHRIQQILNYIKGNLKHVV
Experimental: as §1, §2, §3

[1] = tested on: T6, Nuclear Extract from HeLa Cells; assay: HeLa nuclear extract HDAC activity inhibition; assay type: biochemical, human
T6 construct: 25 ng/μl Nuclear Extract from HeLa Cells: Prepared by high salt extraction of HeLa nuclei (human cervical cancer cell line)
Experimental: as §1, §2
as §3, with “50 μM of substrate peptide (see ‘substrate peptides’ section above) and an optimal concentration of the corresponding enzyme (see ‘enzymes’ section above) in the assay buffer and 1% final concentration of DMSO were incubated in the presence of gradient concentrations of inhibitors (10-dose IC50 mode with 3-fold serial dilution) at 30° C. for 2 h.” left out

SMILES	IC50 (Human HDAC3/NcoR2)	IC50 (Human HDAC4)	IC50 (Human HDAC10)	IC50 (Human HDAC1)	IC50 (Human HDAC8)	IC50 [1]
O=C(CCCCCNc1c2c(nc3ccccc13)CCCC2)NO [Example 1, N-hydroxy-6-[(1,2,3,4-tetrahydroacridin-9-yl)amino]hexanamide]	2.84 µM	6.19 µM	5.76 µM	2.99 µM	0.59 µM	0.066 µM
O=C(CCCCCCNc1c2c(nc3ccccc13)CCCC2)NO [Example 2, N-hydroxy-7-[(1,2,3,4-tetrahydroacridin-9-yl)amino]heptanamide]	0.42 µM	> 5 µM	0.71 µM	0.36 µM	0.53 µM	0.023 µM
O=C(CCCCCCNc1c2c(nc3ccccc13)CCC2)NO [Example 3, 7-[(2,3-dihydro-1H-cyclopenta[b]quinolin-9-yl)amino]-N-hydroxyheptanamide]	0.36 µM	> 5 µM	0.51 µM	0.27 µM	1.28 µM	0.019 µM
O=C(CCCCCCNc1c2c(nc3ccccc13)CCCCC2)NO [Example 4, N-hydroxy-7-[(7,8,9,10-tetrahydro-6H-cyclohepta[b]quinolin-11-yl)amino]heptanamide]	0.74 µM	> 5 µM	1.13 µM	0.84 µM	0.84 µM	0.038 µM
COc1cccc2c(NCCCCCCC(=O)NO)c3c(nc12)CCCC3 [Example 5, N-hydroxy-7-[(5-methoxy-1,2,3,4-tetrahydroacridin-9-yl)amino]heptanamide]	0.66 µM	> 5 µM	1.46 µM	0.9 µM	1.52 µM	0.033 µM
O=C(CCCCCCNc1c2c(nc3ncccc13)CCCC2)NO [Example 7, N-hydroxy-7-[(6,7,8,9-tetrahydrobenzo[b][1,8]naphthyridin-5-yl)amino]heptanamide]	2.44 µM	> 5 µM	4.02 µM	1.77 µM	1.44 µM	0.12 µM
O=C(CCCCCCNc1c2c(nc3cnccc13)CCCC2)NO [Example 8, N-hydroxy-7-[(6,7,8,9-tetrahydrobenzo[b][1,7]naphthyridin-5-yl)amino]heptanamide]	1.88 µM	> 5 µM	2.02 µM	1.12 µM	1.09 µM	0.095 µM
O=C(CCCCCNC(=O)c1c2c(nc3ccccc13)CCCC2)NO [Example 10, N-[6-(hydroxyamino)-6-oxohexyl]-1,2,3,4-tetrahydroacridine-9-carboxamide]	> 5 µM	> 5 µM	> 5 µM	> 5 µM		0.85 µM
O=C(CCCCCCNC(=O)c1c2c(nc3ccccc13)CCCC2)NO [Example 11, N-[7-(hydroxyamino)-7-oxoheptyl]-1,2,3,4-tetrahydroacridine-9-carboxamide]	3.62 µM	> 5 µM	6.89 µM	2.95 µM	0.21 µM	0.42 µM
